Measurements reported in patent publication US6787327B2, “Methods for determining tyrosine-DNA phosphodiesterase activity” (Kelk Graduate of Applied Life Sciences, priority 2001, dated 2004).

Molecular target: HTDPNΔ1-39 (recombinant human TDP) (Homo sapiens, UniProt Q9NUW8)
Details: manganese chloride 5 mM or 10 mM; 5 mM substrate, 5 μg protein; absorbance at 415 nm; FIG. 7
Text: In these assays, a chromogenic enzymatic assay system is used. In these systems, a substrate of smaller molecular weight (i.e., as compared with other substrates) containing one single base of thymidine, with chromogenic para-nitrophenyl group attached to the 3′-hydroxy group of deoxyribose was chosen. This compound mimics the aromatic groups of tyrosine in topo I-DNA complexes.
Upon the cleavage of the phosphodiester bond by TDP, the p-nitrophenol group mimicking the tyrosine residue in topo I-DNA complexes is released. The concentration of this group (i.e., a chromogen) is determined using spectroscopy. Thus, in this Example, enzymatic reactions contained 100 mM Tris HCl, pH 8.5, 100 mM NaCl, 1 mM DTT, 5 mM para-nitrophenyl thymidine-3′-phosphate and 5 μg of purified protein in a volume of 200 μl. For these reactions, 96-well plates were used. The amount of cleaved product (p-nitrophenol) was assessed by determining its absorbance at 415 nm (Ultramark Microplate Imaging System, BioRad).
During the development of this assay system, it was determined that the system may be optimized by the inclusion of manganese cation in the assay. […] Upon incubation of various TDP mutants and the substrate (para-nitrophenyl-thymidine-3′-phosphate) in the presence of manganese cations, the concentrations of the resulting para-nitrophenynol were calculated based on the optical density measured at 415 nm. […]

Sequence of HTDPNΔ1-39 (recombinant human TDP) (Q9NUW8 40-608, stated change not applied): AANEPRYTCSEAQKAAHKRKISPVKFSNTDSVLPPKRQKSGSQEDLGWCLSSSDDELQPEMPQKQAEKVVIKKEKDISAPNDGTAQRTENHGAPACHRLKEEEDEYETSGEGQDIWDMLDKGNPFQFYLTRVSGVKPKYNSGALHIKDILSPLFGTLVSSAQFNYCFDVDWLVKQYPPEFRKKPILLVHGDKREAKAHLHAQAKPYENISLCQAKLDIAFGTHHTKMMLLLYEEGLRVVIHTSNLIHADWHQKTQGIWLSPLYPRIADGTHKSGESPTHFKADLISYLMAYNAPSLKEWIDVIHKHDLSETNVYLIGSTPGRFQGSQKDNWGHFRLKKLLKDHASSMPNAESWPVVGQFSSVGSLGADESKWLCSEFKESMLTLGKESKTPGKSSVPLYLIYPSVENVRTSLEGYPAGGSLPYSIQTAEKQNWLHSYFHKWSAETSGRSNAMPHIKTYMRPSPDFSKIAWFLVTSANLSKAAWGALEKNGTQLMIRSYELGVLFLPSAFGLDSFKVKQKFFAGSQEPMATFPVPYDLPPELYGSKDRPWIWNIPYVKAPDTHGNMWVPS

manganese chloride was tested, and the “increase of enzymatic activity on para-nitrophenyl thymidine-3′-phosphate, as compared to the activity in the presence of magnesium” value was 7 fold and the “increase of enzymatic activity on para-nitrophenyl thymidine-3′-phosphate, as compared with the activity in the absence of cations” value was 17 fold.
